Biological target: Folylpolyglutamate synthase (Sus scrofa)
Assay: Inhibitory activity against hog liver Folyl polyglutamate synthetase (FPGS)

Work on `NCCCC(NC(=O)c1ccc(NCc2ccc3nc(N)[nH]c(=O)c3c2C(F)(F)F)cc1)C(=O)O` (centres undefined) yielded a Ki of 8.8 nM.
Work on `NCCCC(NC(=O)c1ccc(CNc2ccc3nc(N)[nH]c(=O)c3c2Cl)cc1)C(=O)O` (centres undefined) yielded a Ki of 500 nM.
`NCCCC(NC(=O)c1ccc(CNc2ccc3nc(N)[nH]c(=O)c3c2F)cc1)C(=O)O` (centres undefined) showed a Ki of 900 nM.
`NCCCC(NC(=O)c1ccc(CNc2ccc3nc(N)[nH]c(=O)c3c2C(F)(F)F)cc1)C(=O)O` (centres undefined) was tested, and the Ki was 11 nM.
